Patent EP0503520A1, “Cyclic ketal derivatives” (GLAXO GROUP LIMITED, priority 1991, dated 1992)

Biological target: T1, squalene synthase (Rattus norvegicus, UniProt Q02769)
T1 construct: incubating rat liver homogenate with various concentrations of the test compound; from tissue; host or cells: rat liver homogenate
T1 sequence (Q02769 1-416): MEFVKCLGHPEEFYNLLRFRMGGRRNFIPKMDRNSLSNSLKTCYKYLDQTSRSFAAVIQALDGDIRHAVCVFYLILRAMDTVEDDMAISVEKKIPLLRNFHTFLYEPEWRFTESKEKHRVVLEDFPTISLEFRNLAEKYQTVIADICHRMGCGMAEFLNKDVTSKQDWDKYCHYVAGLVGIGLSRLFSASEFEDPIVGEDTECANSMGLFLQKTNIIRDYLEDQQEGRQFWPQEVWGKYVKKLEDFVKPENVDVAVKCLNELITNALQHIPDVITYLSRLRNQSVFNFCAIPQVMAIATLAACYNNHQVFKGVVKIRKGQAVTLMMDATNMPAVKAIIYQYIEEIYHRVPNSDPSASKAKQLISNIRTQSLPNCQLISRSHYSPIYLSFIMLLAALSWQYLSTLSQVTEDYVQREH
Test: Inhibition of squalene synthase in rat liver homogenate with [2-14C]farnesylpyrophosphate as substrate
Format: biochemical
Settings: 50% inhibition of [14C]squalene production in a 30 minute assay, read-out: IC₅₀
Procedure: Acta, Volume 877, 50-60 (1986) and modified to include measurement of cholesterol by high performance liquid chromatography (h.p.l.c.).
[¹⁴C] Squalene was separated from unreacted substrate on thin layer chromatography plates and determined by liquid scintillation counting. Inhibition of squalene synthase was quantified by incubating rat liver homogenate with various concentrations of the test compound in the presence of [2-¹⁴C] farnesylpyrophosphate. The concentration of compound giving 50% inhibition of [¹⁴C] squalene production in a 30 minute assay was taken as the IC₅₀ value.

Structure (SMILES) | IC50 [nM]
C=C(CC[C@]12O[C@H](C(=O)O)[C@@](O)(C(=O)O)[C@](C(=O)O)(O1)[C@H](OC(=O)/C=C/[C@@H](C)C[C@@H](C)CC)[C@H]2O)[C@@H](OC(C)=O)[C@H](C)Cc1ccc(F)cc1 (relative stereo) [Example 1(a), [1S-[1α(4R*,5S*),3α,4β,5α,6α(2E,4R*,6R*),7β]] 1-[4-Acetoxy-6-(4-fluorophenyl)-5-methyl-3-methylenehexyll-4,6,7-trihydroxy-2,8-dioxabicyclo[3.2.1]octane-3,4,5-tricarboxylic acid, 6-(4,6-dimethyl-2-octenoate)] | < 100
C=C(CC[C@]12O[C@H](C(=O)O)[C@@](O)(C(=O)O)[C@](C(=O)O)(O1)[C@H](OC(=O)/C=C/[C@@H](C)C[C@@H](C)CC)[C@H]2O)[C@@H](OC(C)=O)[C@H](C)Cc1cccc(F)c1 (relative stereo) [Example 1(b), [1S-[1α(4R*,5S*),3α,4β,5α,6α(2E,4R*,6R*),7β]] 1-[4-Acetoxy-6-(3-fluorophenyl)-5-methyl-3-methylenehexyl]-4,6,7-trihydroxy-2,8-dioxabicyclo[3.2.1]octane-3,4,5-tricarboxylic acid, 6-(4,6-dimethyl-2-octenoate)] | < 100
C=C(CC[C@]12O[C@H](C(=O)O)[C@@](O)(C(=O)O)[C@](C(=O)O)(O1)[C@H](OC(=O)/C=C/[C@@H](C)C[C@@H](C)CC)[C@H]2O)[C@@H](OC(C)=O)[C@H](C)Cc1ccccc1F (relative stereo) [Example 1(c), [1S-[1α(4R*,5S*),3α,4β,5α,6α(2E,4R*,6R*),7β]] 1-[4-Acetoxy-6-(2-fluorophenyl)-5-methyl-3-methylenehexyl]-4,6,7-trihydroxy-2,8-dioxabicyclo[3.2.1]octane-3,4,5-tricarboxylic acid, 6-(4,6-dimethyl-2-octenoate)] | < 100
